Laboratory results published in patent publication US20090181963A1, “3H-[1,2,3]TRIAZOLO[4,5-D]PYRIMIDINE COMPOUNDS, THEIR USE AS mTOR KINASE AND PI3 KINASE INHIBITORS, AND THEIR [sequence]” (Wyeth, priority 2008, published 2009).

How the values were obtained:
[1] = molecular target: PI3 Kinase α (Homo sapiens, UniProt P42336); test: Fluorescence polarization assay for PI3K (PI3 Kinase α); assay type: biochemical; settings: diC8-PI(4,5)P2 substrate, 25 μM ATP, one hour at 25° C.
[2] = molecular target: PI3 Kinase γ (Homo sapiens, UniProt P48736); test: Fluorescence polarization assay for PI3K (PI3 Kinase γ); assay type: biochemical; settings: diC8-PI(4,5)P2 substrate, 25 μM ATP, one hour at 25° C.
PI3 Kinase γ, sequence (P48736 whole entry): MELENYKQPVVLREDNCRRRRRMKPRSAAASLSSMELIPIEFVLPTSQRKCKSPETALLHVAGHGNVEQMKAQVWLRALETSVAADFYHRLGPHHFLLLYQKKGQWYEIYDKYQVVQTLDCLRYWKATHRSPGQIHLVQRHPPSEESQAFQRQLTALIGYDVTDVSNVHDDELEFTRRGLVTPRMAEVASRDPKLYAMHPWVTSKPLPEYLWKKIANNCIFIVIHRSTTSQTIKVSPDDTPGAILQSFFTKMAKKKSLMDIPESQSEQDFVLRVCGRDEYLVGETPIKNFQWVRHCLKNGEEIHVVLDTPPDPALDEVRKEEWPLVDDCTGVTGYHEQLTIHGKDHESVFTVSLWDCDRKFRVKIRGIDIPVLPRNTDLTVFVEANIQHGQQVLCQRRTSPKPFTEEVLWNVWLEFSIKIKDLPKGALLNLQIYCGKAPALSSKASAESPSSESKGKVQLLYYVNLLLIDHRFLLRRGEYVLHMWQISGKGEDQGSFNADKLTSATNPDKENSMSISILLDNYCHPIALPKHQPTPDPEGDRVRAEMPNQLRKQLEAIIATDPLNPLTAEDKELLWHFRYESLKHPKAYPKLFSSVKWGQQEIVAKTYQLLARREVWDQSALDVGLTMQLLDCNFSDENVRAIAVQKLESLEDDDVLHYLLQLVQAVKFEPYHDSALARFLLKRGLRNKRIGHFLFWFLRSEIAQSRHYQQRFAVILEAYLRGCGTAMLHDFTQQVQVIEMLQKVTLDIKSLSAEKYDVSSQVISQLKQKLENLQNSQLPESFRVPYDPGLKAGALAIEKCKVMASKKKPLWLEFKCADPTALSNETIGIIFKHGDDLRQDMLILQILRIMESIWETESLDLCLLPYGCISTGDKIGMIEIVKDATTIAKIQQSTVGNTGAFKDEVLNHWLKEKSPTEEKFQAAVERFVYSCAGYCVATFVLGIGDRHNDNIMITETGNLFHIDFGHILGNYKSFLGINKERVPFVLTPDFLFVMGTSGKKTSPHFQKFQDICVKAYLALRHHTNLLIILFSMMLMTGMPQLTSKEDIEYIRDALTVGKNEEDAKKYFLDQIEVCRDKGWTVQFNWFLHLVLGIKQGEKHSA
Experimental: Nunc 384 well black polypropylene fluorescent plates were used for PI3K assays. Reactions were quenched by the addition of EDTA to a final concentration of 10 μM. Final reaction volumes were 10 ml. […] Reactions were allowed to proceed for one hour at 25° C. After I hour, GST-tagged GRP1 (general receptor for phosphoinositides) PH domain fusion protein was added to a final concentration of 100 nM, and BODIPY-TMRI(1,3,4,5)P4 (Echelon) was also added to a final concentration of 5 nM. Final sample volumes were 25 μl with a final DMSO concentration of 0.8%. Assay Plates were read on PerkinElmer Envision plate readers with appropriate filters for Tamra [BODIPY-TMRI(1,3,4,5)P4]. Data obtained were used to calculate enzymatic activity and enzyme inhibition by inhibitor compounds.

PI3 Kinase α, sequence (P42336 whole entry): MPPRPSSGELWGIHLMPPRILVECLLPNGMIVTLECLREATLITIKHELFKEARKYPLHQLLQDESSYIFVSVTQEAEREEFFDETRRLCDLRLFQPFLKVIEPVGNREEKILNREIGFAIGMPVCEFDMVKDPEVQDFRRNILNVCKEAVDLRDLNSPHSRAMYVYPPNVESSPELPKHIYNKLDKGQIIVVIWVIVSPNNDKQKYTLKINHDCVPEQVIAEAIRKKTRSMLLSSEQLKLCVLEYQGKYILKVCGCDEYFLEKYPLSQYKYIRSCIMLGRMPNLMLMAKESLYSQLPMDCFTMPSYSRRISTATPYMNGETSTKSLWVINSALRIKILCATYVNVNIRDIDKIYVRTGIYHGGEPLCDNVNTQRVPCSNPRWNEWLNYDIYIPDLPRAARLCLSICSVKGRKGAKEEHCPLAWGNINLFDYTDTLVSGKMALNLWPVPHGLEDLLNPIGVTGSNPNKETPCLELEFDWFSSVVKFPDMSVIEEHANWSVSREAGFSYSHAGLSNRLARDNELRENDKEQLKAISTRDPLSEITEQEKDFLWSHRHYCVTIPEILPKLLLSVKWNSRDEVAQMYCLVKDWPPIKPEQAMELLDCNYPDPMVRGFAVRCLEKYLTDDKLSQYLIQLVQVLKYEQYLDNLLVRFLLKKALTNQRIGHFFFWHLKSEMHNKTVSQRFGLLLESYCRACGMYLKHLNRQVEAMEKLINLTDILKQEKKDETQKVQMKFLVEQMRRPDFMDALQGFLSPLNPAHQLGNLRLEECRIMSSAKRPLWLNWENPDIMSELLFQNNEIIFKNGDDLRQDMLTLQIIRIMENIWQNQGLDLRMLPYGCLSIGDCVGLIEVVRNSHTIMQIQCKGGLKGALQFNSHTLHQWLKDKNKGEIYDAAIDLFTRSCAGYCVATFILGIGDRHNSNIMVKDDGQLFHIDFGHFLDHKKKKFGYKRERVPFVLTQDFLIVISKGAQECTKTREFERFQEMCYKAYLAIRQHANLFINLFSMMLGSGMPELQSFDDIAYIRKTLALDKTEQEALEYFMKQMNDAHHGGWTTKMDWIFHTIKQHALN
PI3 Kinase α, sequence (P27986 whole entry partner): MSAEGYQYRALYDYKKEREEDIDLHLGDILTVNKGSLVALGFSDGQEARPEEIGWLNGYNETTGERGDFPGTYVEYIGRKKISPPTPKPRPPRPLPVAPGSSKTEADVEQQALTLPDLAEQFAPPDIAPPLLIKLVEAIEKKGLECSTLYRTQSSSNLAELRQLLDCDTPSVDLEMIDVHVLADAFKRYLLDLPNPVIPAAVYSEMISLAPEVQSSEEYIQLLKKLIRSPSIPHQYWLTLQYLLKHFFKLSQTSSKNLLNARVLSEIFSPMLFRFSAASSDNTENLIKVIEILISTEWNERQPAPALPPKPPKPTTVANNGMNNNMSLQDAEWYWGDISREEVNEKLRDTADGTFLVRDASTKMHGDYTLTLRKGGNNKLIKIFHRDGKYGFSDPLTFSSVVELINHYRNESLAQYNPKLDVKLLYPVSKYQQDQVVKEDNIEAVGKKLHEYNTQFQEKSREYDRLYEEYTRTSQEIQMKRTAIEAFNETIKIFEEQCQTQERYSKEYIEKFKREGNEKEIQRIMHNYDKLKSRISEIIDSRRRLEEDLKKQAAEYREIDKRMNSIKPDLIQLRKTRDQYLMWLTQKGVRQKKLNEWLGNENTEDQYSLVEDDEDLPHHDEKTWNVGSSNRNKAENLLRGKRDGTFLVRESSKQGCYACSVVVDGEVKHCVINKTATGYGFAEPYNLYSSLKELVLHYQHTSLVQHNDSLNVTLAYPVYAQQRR

Row | Molecule | IC50 [1] | IC50 [2]
1 | CN(C)CCCCn1nnc2c(N3CCOCC3)nc(-c3cccc(O)c3)nc21 [Example 202, 3-{3-[4-(dimethylamino)butyl]-7-morpholin-4-yl-3H-[1,2,3]triazolo[4,5-d]pyrimidin-5-yl}phenol] | 224 nM | 780 nM
2 | CN(C)CCNC(=O)Nc1ccc(-c2nc(N3CCOCC3)c3nnn(C4CCN(Cc5cccnc5)CC4)c3n2)cc1 [Example 154, 1-(2-(dimethylamino)ethyl)-3-(4-(7-morpholino-3-(1-(pyridin-3-ylmethyl)piperidin-4-yl)-3H-[1,2,3]triazolo[4,5-d]pyrimidin-5-yl)phenyl)urea] | 206 nM | 58 nM
3 | 3-{3-[4-(4-Benzylpiperazin-1-yl)butyl]-7-morpholin-4-yl-3H-[1,2,3]triazolo[4,5-d]pyrimidin-5-yl}phenol [Example 206] | 116 nM | 216 nM
4 | Nc1ncc(-c2nc(N3CCOCC3)c3nnn(C4CCN(Cc5ccccc5)CC4)c3n2)cn1 [Example 2, 5-[3-(1-benzylpiperidin-4-yl)-7-morpholin-4-yl-3H-[1,2,3]triazolo[4,5-d]pyrimidin-5-yl]pyrimidin-2-amine] | 1820 nM | 4330 nM
5 | Oc1cccc(-c2nc(N3CCOCC3)c3nnn(C4CN(Cc5ccc(F)nc5)C4)c3n2)c1 [Example 128, 3-(3-{1-[(6-fluoropyridin-3-yl)methyl]azetidin-3-yl}-7-morpholin-4-yl-3H-[1,2,3]triazolo[4,5-d]pyrimidin-5-yl)phenol] | 164 nM | 1100 nM
6 | OCc1cccc(-c2nc(N3CCOCC3)c3nnn(-c4cccc(CO)c4)c3n2)c1 [Example 117, [(7-morpholin-4-yl-3H-[1,2,3]triazolo[4,5-d]pyrimidine-3,5-diyl)di-3,1-phenylene]dimethanol] | 38.3 nM | 144 nM
7 | O=C(Cn1nnc2c(N3CCOCC3)nc(-c3cccc(CO)c3)nc21)Nc1cccnc1 [Example 235, 2-{5-[3-(hydroxymethyl)phenyl]-7-morpholin-4-yl-3H-[1,2,3]triazolo[4,5-d]pyrimidin-3-yl}-N-pyridin-3-ylacetamide] | 637 nM | 2230 nM
8 | Oc1cncc(-c2nc(N3CCOCC3)c3nnn(C4CCN(Cc5ccc(F)cc5)CC4)c3n2)c1 [Example 14, 5-{3-[1-(4-fluorobenzyl)piperidin-4-yl]-7-morpholin-4-yl-3H-[1,2,3]triazolo[4,5-d]pyrimidin-5-yl}pyridin-3-ol] | 60 nM | 94 nM
9 | Oc1cccc(-c2nc(N3CCOCC3)c3nnn(C4CCN(Cc5ccccn5)CC4)c3n2)c1 [Example 149, 3-{7-morpholin-4-yl-3-[1-(pyridin-2-ylmethyl)piperidin-4-yl]-3H-[1,2,3]triazolo[4,5-d]pyrimidin-5-yl}phenol] | 67 nM | 735 nM
10 | O=C(NCC(O)c1ccccc1)c1ccc(Cn2nnc3c(N4CCOCC4)nc(-c4cccc(O)c4)nc32)cc1 (centres unmarked) [Example 226, N-(2-hydroxy-2-phenylethyl)-4-{[5-(3-hydroxyphenyl)-7-morpholin-4-yl-3H-[1,2,3]triazolo[4,5-d]pyrimidin-3-yl]methyl}benzamide] | 126 nM | 958 nM
11 | CCC(=O)N1CCN(CCn2nnc3c(N4CCOCC4)nc(-c4cccc(O)c4)nc32)CC1 [Example 100, 3-{7-morpholin-4-yl-3-[2-(4-propionylpiperazin-1-yl)ethyl]-3H-[1,2,3]triazolo[4,5-d]pyrimidin-5-yl}phenol] | 1660 nM | 3140 nM
12 | CCn1nnc2c(N3CCOC[C@@H]3C)nc(-c3ccc(NC(=O)Nc4ccc(CCO)cc4)cc3)nc21 [Example 68, (S)-1-(4-(3-ethyl-7-(3-methylmorpholino)-3H-[1,2,3]triazolo[4,5-d]pyrimidin-5-yl)phenyl)-3-(4-(2-hydroxyethyl)phenyl)urea] | 9 nM | 70.3 nM
13 | O=C(Nc1ccccc1)Nc1ccc(-c2nc(N3CCOCC3)c3nnn(CC4CN(Cc5ccc(-c6ccncc6)cc5)C4)c3n2)cc1 [Example 193, 1-[4-(7-Morpholin-4-yl-3-{[1-(4-pyridin-4-ylbenzyl)azetidin-3-yl]methyl}-3H-[1,2,3]triazolo[4,5-d]pyrimidin-5-yl)phenyl]-3-phenylurea] | 68 nM | 408 nM
14 | CCn1nnc2c(N3CCOCC3)nc(-c3ccc(NC(=O)Nc4ccc(C(=O)N5CCC(N6CCOCC6)CC5)cc4)cc3)nc21 [Example 48, 1-[4-(3-ethyl-7-morpholin-4-yl-3H-[1,2,3]triazolo[4,5-d]pyrimidin-5-yl)phenyl]-3-{4-[(4-morpholin-4-ylpiperidin-1-yl)carbonyl]phenyl}urea] | 5.5 nM | 31 nM
15 | COC(=O)c1cccc(-n2nnc3c(N4CCOCC4)nc(-c4cccc(O)c4)nc32)c1 [Example 115, methyl 3-[5-(3-hydroxyphenyl)-7-morpholin-4-yl-3H-[1,2,3]triazolo[4,5-d]pyrimidin-3-yl]benzoate] | 240 nM | 3630 nM
16 | NC(=O)c1cccc(-n2nnc3c(N4CCOCC4)nc(-c4cccc(O)c4)nc32)c1 [Example 119, 3-[5-(3-hydroxyphenyl)-7-morpholin-4-yl-3H-[1,2,3]triazolo[4,5-d]pyrimidin-3-yl]benzamide] | 22.5 nM | 314 nM
17 | O=C(c1ccncc1)N1CCN(CCn2nnc3c(N4CCOCC4)nc(-c4cccc(O)c4)nc32)CC1 [Example 103, 3-{3-[2-(4-isonicotinoylpiperazin-1-yl)ethyl]-7-morpholin-4-yl-3H-[1,2,3]triazolo[4,5-d]pyrimidin-5-yl}phenol] | 987 nM | 5050 nM
18 | COC(=O)c1cccc(-n2nnc3c(N4CCOCC4)nc(-c4cccc(C=O)c4)nc32)c1 [Example 116, methyl 3-[5-(3-formylphenyl)-7-morpholin-4-yl-3H-[1,2,3]triazolo[4,5-d]pyrimidin-3-yl]benzoate] | > 10000 nM | > 10000 nM

Now from value to molecule:

Row | IC50 [1] | IC50 [2] | Molecule
19 | 3 nM | 19 nM | CCn1nnc2c(N3CCOCC3)nc(-c3ccc(NC(=O)Nc4ccncc4)cc3)nc21 [Example 33, 1-[4-(3-ethyl-7-morpholin-4-yl-3H-[1,2,3]triazolo[4,5-d]pyrimidin-5-yl)phenyl]-3-pyridin-4-ylurea]
20 | 22 nM | 147 nM | CN1CCC(n2nnc3c(N4CCOCC4)nc(-c4ccc(NC(=O)Nc5cccnc5)cc4)nc32)CC1 [Example 164, 1-{4-[3-(1-methylpiperidin-4-yl)-7-morpholin-4-yl-3H-[1,2,3]triazolo[4,5-d]pyrimidin-5-yl]phenyl}-3-pyridin-3-ylurea]
21 | 385 nM | 2530 nM | CCCCN1CCC(n2nnc3c(N4CCOCC4)nc(-c4cncc(O)c4)nc32)CC1 [Example 27, 5-[3-(1-butylpiperidin-4-yl)-7-morpholin-4-yl-3H-[1,2,3]triazolo[4,5-d]pyrimidin-5-yl]pyridin-3-ol]
22 | 570 nM | 1850 nM | OCc1cncc(-c2nc(N3CCOCC3)c3nnn(C4CCN(Cc5ccccc5)CC4)c3n2)c1 [Example 173, {5-[3-(1-benzylpiperidin-4-yl)-7-morpholin-4-yl-3H-[1,2,3]triazolo[4,5-d]pyrimidin-5-yl]pyridin-3-yl}methanol]
23 | 439 nM | 2290 nM | Oc1cccc(-c2nc(N3CCOCC3)c3nnn(CCN4CCN(Cc5cccnc5)CC4)c3n2)c1 [Example 111, 3-(7-morpholin-4-yl-3-{2-[4-(pyridin-3-ylmethyl)piperazin-1-yl]ethyl}-3H-[1,2,3]triazolo[4,5-d]pyrimidin-5-yl)phenol]
24 | 149 nM | 645 nM | CCN1CCCC1CNC(=O)Nc1ccc(-c2nc(N3CCOCC3)c3nnn(C(C)C)c3n2)cc1 (centres unmarked) [Example 92, 1-(1-ethyl-pyrrolidin-2-ylmethyl)-3-[4-(3-isopropyl-7-morpholin-4-yl-3H-[1,2,3]triazolo[4,5-d]pyrimidin-5-yl)-phenyl]-urea]
25 | 56.5 nM | 260 nM | CN(C)CCNC(=O)c1cccc(-n2nnc3c(N4CCOCC4)nc(-c4cccc(O)c4)nc32)c1 [Example 122, N-[2-(dimethylamino)ethyl]-3-[5-(3-hydroxyphenyl)-7-morpholin-4-yl-3H-[1,2,3]triazolo[4,5-d]pyrimidin-3-yl]benzamide]
26 | 7 nM | 34 nM | O=C(Nc1ccc(-c2nc(N3CCOCC3)c3nnn(C4CC4)c3n2)cc1)Nc1cccnc1 [Example 79, 1-(4-(3-cyclopropyl-7-morpholino-3H-[1,2,3]triazolo[4,5-d]pyrimidin-5-yl)phenyl)-3-(pyridin-3-yl)urea]
27 | 171 nM | 406 nM | CC(=O)NCCn1nnc2c(N3CCOCC3)nc(-c3cccc(O)c3)nc21 [Example 7, N-{2-[5-(3-hydroxyphenyl)-7-morpholin-4-yl-3H-[1,2,3]triazolo[4,5-d]pyrimidin-3-yl]ethyl}acetamide]
28 | 1020 nM | 4360 nM | CC(C)(C)OC(=O)N1CCN(CCn2nnc3c(N4CCOCC4)nc(-c4cccc(O)c4)nc32)CC1 [Example 97, tert-butyl 4-{2-[5-(3-hydroxyphenyl)-7-morpholin-4-yl-3H-[1,2,3]triazolo[4,5-d]pyrimidin-3-yl]ethyl}piperazine-1-carboxylate]
29 | 20 nM | 47 nM | O=C(Nc1ccc(-c2nc(N3CCOCC3)c3nnn(CCO)c3n2)cc1)Nc1cccnc1 [Example 184, 1-{4-[3-(2-hydroxyethyl)-7-morpholin-4-yl-3H-[1,2,3]triazolo[4,5-d]pyrimidin-5-yl]phenyl}-3-pyridin-3-ylurea]
30 | > 10000 nM | > 10000 nM | COC(=O)NC(=O)Nc1ccc(-c2nc(N3CCOCC3)c3nnn(C4CCN(C(=O)OC(C)(C)C)CC4)c3n2)cc1 [Example 169, tert-butyl 4-[5-(4-{[(methoxycarbonyl)carbamoyl]amino}phenyl)-7-morpholin-4-yl-3H-[1,2,3]triazolo[4,5-d]pyrimidin-3-yl]piperidine-1-carboxylate]
31 | 1510 nM | 1610 nM | COC(=O)c1ccc(Cn2nnc3c(N4CCOCC4)nc(-c4cc(O)cc(F)c4)nc32)cc1 [Example 244, methyl 4-{[5-(3-fluoro-5-hydroxyphenyl)-7-morpholin-4-yl-3H-[1,2,3]triazolo[4,5-d]pyrimidin-3-yl]methyl}benzoate]
